The target in this assay is T1, mTLR9 (Mus musculus, UniProt Q9EQU3).
T1 construct: Splenocytes isolated from male C57/BL6 mice; from tissue; host or cells: splenocytes from the spleen of male C57BL/6 mice
T1 sequence (Q9EQU3 26-1032): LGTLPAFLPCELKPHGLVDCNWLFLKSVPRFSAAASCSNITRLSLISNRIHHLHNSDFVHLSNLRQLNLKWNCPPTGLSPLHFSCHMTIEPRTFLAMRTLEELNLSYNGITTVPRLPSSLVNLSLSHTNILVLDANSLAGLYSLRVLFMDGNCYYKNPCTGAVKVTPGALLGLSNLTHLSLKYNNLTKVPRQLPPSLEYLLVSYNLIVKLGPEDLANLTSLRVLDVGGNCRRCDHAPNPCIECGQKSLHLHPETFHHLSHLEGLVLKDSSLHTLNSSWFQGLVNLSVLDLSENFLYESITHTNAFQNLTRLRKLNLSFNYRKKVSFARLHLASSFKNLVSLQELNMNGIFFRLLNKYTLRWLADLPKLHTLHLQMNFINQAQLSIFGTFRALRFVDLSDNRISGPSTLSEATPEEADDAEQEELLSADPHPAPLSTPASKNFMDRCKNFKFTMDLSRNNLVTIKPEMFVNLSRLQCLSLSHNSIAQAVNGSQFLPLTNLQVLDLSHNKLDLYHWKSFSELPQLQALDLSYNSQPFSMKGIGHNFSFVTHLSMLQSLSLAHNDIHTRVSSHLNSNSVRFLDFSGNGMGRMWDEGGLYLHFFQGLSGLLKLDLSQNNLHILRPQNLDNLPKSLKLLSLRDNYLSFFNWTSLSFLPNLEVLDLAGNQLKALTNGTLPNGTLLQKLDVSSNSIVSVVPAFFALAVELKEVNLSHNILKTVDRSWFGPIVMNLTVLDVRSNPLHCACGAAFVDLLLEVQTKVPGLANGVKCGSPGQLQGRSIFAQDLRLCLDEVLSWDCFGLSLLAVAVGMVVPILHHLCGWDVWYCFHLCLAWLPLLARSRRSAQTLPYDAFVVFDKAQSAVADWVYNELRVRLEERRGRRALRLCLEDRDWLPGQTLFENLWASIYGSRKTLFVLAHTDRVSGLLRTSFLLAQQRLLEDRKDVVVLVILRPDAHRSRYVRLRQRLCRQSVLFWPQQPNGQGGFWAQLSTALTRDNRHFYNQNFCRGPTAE
Nature of the assay: mTLR9 antagonism (IL-6 and TNF-α release assay) in mouse splenocytes, CpG ODN-2006 stimulated. The class given is cell-based. From the text: mTLR9 and mTLR7 Antagonism (Cytokine Release Assay) in Mouse Splenocytes
TLR7 ligand R0006 (IDT, 5′-rU*rU*rG*rU*rU*rG*rU*rU*rG*rU*rU*rG*rU*rU*rG*rU*rU*rG*rU*rU-3′ (SEQ ID NO:1)), Liposomal transfection reagent—DOTAP (Roche, Cat. No. 11202375001), TLR9 ligand CpG ODN2006 (Sequence: T*C*G*T*C*G*T*T*T*T*G*T*C*G*T*T*T*T*G*T*C*G*T*T; *=phosphorothioate (SEQ ID NO:2)) DMSO (Sigma, D2650), RPMI Powder (Sigma, R6504), Fetal Bovine Serum (Gibco, 10270), Dulbecco's Phosphate Buffered Saline (Sigma, D1408), 96 well plate (Flat bottom, Costar 3599), ELISA kit for IL-6 (EBioscience, 88-7064-77 and TNFa (EBioscience, 88-7346-88), MACS Buffer (AutoMACS Rinsing Solution (Miltenyl Biotec, 130-091-222)+0.05% BSA), RBC lysis buffer (0.85% NH4Cl), 40 μm cell strainer (BD Falcon, 352340) Method: A. Isolation of Mouse Splenocytes
Mouse spleen was isolated from C57BL6 mouse and stored in 1× chilled PBS buffer until further processed. Spleen was transferred to a sterile petriplate and chopped in to 5-6 pieces in presence of MACS buffer (100 μl) with the help of fresh surgical blade and crushed with flat plunger of a sterile syringe. A uniform suspension was prepared by passing cells through a 40 μm cell strainer. Cells were centrifuged at 450×g for 5 minutes at 4° C., supernatant was discarded and pellet dislodged gently, resuspended in 2 ml of pre-warmed (37° C.) RBC lysis buffer at room temperature with continuous gentle mixing with 1 ml pipette. Lysis buffer was neutralized with 12 ml of chilled MACS buffer and cells were passed through 40 μm cell strainer. Cell suspension was collected in 15 ml MACS buffer and centrifuged at 450×g for 5 minutes at 4° C. Pellet was resuspended in 15 ml MACS buffer and centrifuged at 400×g for 5 minutes. Cells were resuspended in 10 ml of RPMI complete medium and viability was estimated by Trypan blue method.
mTLR9 Antagonism (IL-6 and TNF-α Release Assay):
500 μM stock of CpG ODN-2006 was prepared in sterile, endotoxin-free water. Dilutions of 10× concentrations of NCEs were prepared in incomplete RPMI media, maintaining a final DMSO concentration of 0.3%. NCEs were added in a concentration range of 30 μM to 1 nM in respective wells of assay plate, assay medium containing 0.3% DMSO were added to control wells. 0.2 million splenocytes were added to all the wells and incubated at 37° C. in 5% CO2 incubator for 30 minutes. 1 μg/ml of respective agonist was added to all the wells except those were assigned as negative controls and mixed thoroughly. Incomplete RPMI was added to negative control wells and incubated overnight at 37° C./5% CO2. The plate was centrifuged at 450×g for 5 minutes at room temperature and the supernatant was collected. ELISA was performed as per manufacturer's protocol. S/B Ratio, % Activity and % Inhibition was calculated using MS Excel. IC50 and inhibition curve was generated using Graph Pad Prism.

[1] abbreviates: 1 μM, IL-6 release, mouse splenocytes, read-out: mTLR9 inhibitory activity (% at 1 μM), IL-6.
Where [2] appears, read: 1 μM, TNF-α release, mouse splenocytes, read-out: mTLR9 inhibitory activity (% at 1 μM), TNF-α.

Like-named read-outs stand apart in the source and are kept apart here.

For the molecule `CCN1CCN(c2ccc(-c3nc(C)c(C)c4[nH]c(CN5CCOCC5)cc34)cc2)CC1` [Example A38, 4-[[4-[4-(4-ethylpiperazin-1-yl)phenyl]-6,7-dimethyl-1H-pyrrolo[3,2-c]pyridin-2-yl]methyl] morpholine], the inhibition at 1 µM is, setting by setting: under setting [1], 100%; under setting [2], 100%.

On to `Cc1cc2[nH]c(CCN3CCOCC3)cc2c(-c2ccc(N3CCN(C)CC3)cc2)n1` [Example B4, 4-[2-[6-methyl-4-[4-(4-methylpiperazin-1-yl)phenyl]-1H-pyrrolo[3,2-c]pyridin-2-yl]ethyl]morpholine], for which the inhibition at 1 µM under setting [2] came out at 100%.

`CC(C)N1CCN(c2ccc(-c3nccc4[nH]c(CN5CCC(F)CC5)cc34)cc2)CC1` [Example A24, 2-[(4-fluoro-1-piperidyl)methyl]-4-[4-(4-isopropylpiperazin-yl)phenyl]-1H-pyrrolo[3,2-c] pyridine]: the inhibition at 1 µM under setting [2] came out at 100%.

`CC(C)N1CCN(c2ccc(-c3nccc4[nH]c(CN5CCOCC5)cc34)cn2)CC1` [Example A53, 4-[[4-[6-(4-isopropylpiperazin-1-yl)-3-pyridyl]-1H-pyrrolo[3,2-c]pyridin-2-yl]methyl]morpholine]: the inhibition at 1 µM by setting is: under setting [1], 100%; under setting [2], 80%.

On to `Cc1nc(-c2ccc(N3CCN(C(C)C)CC3)cc2)c2cc(CCN3CCCC3)[nH]c2c1C` [Example B10, 4-[4-(4-isopropylpiperazin-1-yl)phenyl]-6,7-dimethyl-2-(2-pyrrolidin-1-ylethyl)-1H-pyrrolo[3,2-c]pyridine], for which the inhibition at 1 µM is, setting by setting: under setting [1], 100%; under setting [2], 100%.

On to `Cc1cc2[nH]c(Cn3cccn3)cc2c(-c2ccc(N3CCN(C(C)C)CC3)cc2)n1` [Example A28, 4-[4-(4-isopropylpiperazin-1-yl)phenyl]-6-methyl-2-(pyrazol-1-ylmethyl)-1H-pyrrolo[3,2-c]pyridine], for which the inhibition at 1 µM under setting [1] came to 100% and the inhibition at 1 µM under setting [2] was determined as 100%.

Turning to `Cc1cc2c(cc(CCCN3CCOCC3)n2C)c(-c2ccc(N3CCN(C(C)C)CC3)cc2)n1` [Example C6, 4-[3-[4-[4-(4-isopropylpiperazin-1-yl)phenyl]-1,6-dimethyl-pyrrolo[3,2-c]pyridin-2-yl]propyl]morpholine], the inhibition at 1 µM reads like this: under setting [1], 100%; under setting [2], 100%.

Turning to `CC(C)N1CCN(c2ccc(-c3nccc4[nH]c(CN5CC(O)C5)cc34)cc2)CC1` [Example A72, 1-[[4-[4-(4-isopropylpiperazin-1-yl)phenyl]-1H-pyrrolo[3,2-c]pyridin-2-yl]methyl]azetidin-3-ol], the inhibition at 1 µM came to 72% under setting [1] and 0% under setting [2].

Regarding `CC(C)N1CCC(c2ccc(-c3nccc4[nH]c(CN5CCOCC5)cc34)cn2)CC1` [Example A64, 4-[[4-[6-(1-isopropyl-4-piperidyl)-3-pyridyl]-1H-pyrrolo[3,2-c]pyridin-2-yl]methyl]morpholine], the inhibition at 1 µM reads like this: under setting [1], 25%; under setting [2], 0%.

Take `CC(C)N1CCN(c2ccc(-c3nccc4[nH]c(CN5CCCCC5)cc34)cc2)CC1` [Example A17, 4-[4-(4-isopropylpiperazin-1-yl)phenyl]-2-(1-piperidylmethyl)-1H-pyrrolo[3,2-c]pyridine]: the inhibition at 1 µM reads like this: under setting [1], 100%; under setting [2], 100%.

As for `CC(C)N1CCN(c2ccc(-c3nc(C4CC4)cc4[nH]c(CN5CCOCC5)cc34)cc2)CC1` [Example A33, 4-[[6-cyclopropyl-4-[4-(4-isopropylpiperazin-1-yl)phenyl]-1H-pyrrolo[3,2-c]pyridin-2-yl]methyl] morpholine], under setting [2], the inhibition at 1 µM is 85%.

For the molecule `CC(C)N1CCN(c2ccc(-c3nccc4c3cc(CN3CCOCC3)n4C)cc2)CC1` [Example A8, 4-[[4-[4-(4-isopropylpiperazin-1-yl)phenyl]-1-methyl-pyrrolo[3,2-c]pyridin-2-yl]methyl] morpholine], the inhibition at 1 µM under setting [2] was determined as 100%.

`Cc1cc2c(cc(CCN3CCOCC3)n2C)c(-c2ccc(C3CCN(C(C)C)CC3)cc2)n1` [Example B31, 4-[2-[4-[4-(1-isopropyl-4-piperidyl)phenyl]-1,6-dimethyl-pyrrolo[3,2-c]pyridin-2-yl]ethyl]morpholine]: the inhibition at 1 µM runs as follows: under setting [1], 100%; under setting [2], 92%.

Regarding `Cc1nc(-c2ccc(N3CCN(C)CC3)cc2)c2cc(CN3CCOCC3)[nH]c2c1C` [Example A37, 4-[[6,7-dimethyl-4-[4-(4-methylpiperazin-1-yl)phenyl]-1H-pyrrolo[3,2-c]pyridin-2-yl]methyl] morpholine], the inhibition at 1 µM under setting [2] was 100%.

As for `CC(C)N1CCN(c2ccc(-c3nccc4[nH]c(CN5CCC(O)CC5)cc34)cc2)CC1` [Example A12, 1-[[4-[4-(4-isopropylpiperazin-1-yl)phenyl]-1H-pyrrolo[3,2-c]pyridin-2-yl]methyl] piperidin-4-ol], the inhibition at 1 µM reads like this: under setting [1], 95%; under setting [2], 52%.

With `CC(C)N1CCN(c2ccc(-c3nccc4[nH]c(C(=O)N5CCOCC5)cc34)cc2)CC1` [Example A82, [4-[4-(4-isopropylpiperazin-1-yl)phenyl]-1H-pyrrolo[3,2-c]pyridin-2-yl]-morpholino-methanone], the inhibition at 1 µM reads like this: (read-out: mTLR9 inhibitory activity (% at 1 μM), IL-6) 100%; (read-out: mTLR9 inhibitory activity (% at 1 μM), TNF-α) 52%.

Consider `CC(C)N1CCN(c2ccc(-c3nccc4[nH]c(CN5CCOCC5)cc34)cc2)CC1` [Example A1, 4-[[4-[4-(4-isopropylpiperazin-1-yl)phenyl]-1H-pyrrolo[3,2-c]pyridin-2-yl]methyl]morpholine], for which the inhibition at 1 µM runs as follows: under setting [1], 100%; under setting [2], 94%.

As to `CC(C)N1CCN(c2ccc(-c3nccc4[nH]c(CCCN5CCOCC5)cc34)cc2)CC1` [Example C1, 4-[3-[4-[4-(4-isopropylpiperazin-1-yl)phenyl]-1H-pyrrolo[3,2-c]pyridin-2-yl]propyl]morpholine], the inhibition at 1 µM under setting [2] stood at 100%.

Turning to `CN1CCN(c2ccc(-c3nccc4[nH]c(CCN5CCOCC5)cc34)cc2)CC1` [Example B2, 4-[2-[4-[4-(4-methylpiperazin-1-yl)phenyl]-1H-pyrrolo[3,2-c]pyridin-2-yl]ethyl]morpholine], the inhibition at 1 µM by setting is: under setting [1], 100%; under setting [2], 95%.

(Values after patent US9643967B2, “Pyrrolo[3,2-c]pyridine derivatives as TLR inhibitors” (TAKEDA PHARMACEUTICAL COMPANY LIMITED, priority 2013, dated 2017).)
